Legend:
Assay type in all cases: in vivo, human
[1] = system: patients with symptomatic oHCM; assay: Open-label extension trial in oHCM: LVOT-G, LVEF, NYHA class, KCCQ
Description: (§1) An open-label extension clinical trial of CK-274 in patients with symptomatic oHCM was initiated.
(§2) Patients who completed the study as described in Example 2 and had not developed atrial fibrillation were eligible to enroll in the study. Echo-guided dose titration based on site reads was managed by the investigator and could occur at any time during the trial, as described below.
(§3) Each patient received Dose 1 of CK-274 once daily for 2 weeks. […] Patients were up-titrated to Dose 2 if either of the following conditions were met on echocardiography: (1) resting LVOT-G≥30 mmHg and the biplane LVEF≥50%; or (2) resting LVOT-G<30 mmHg, post-Valsalva LVOT-G≥50 mmHg, and the biplane LVEF≥50%. Otherwise, the patient remained on 5 mg of CK-274. If LVEF was […], treatment was discontinued. If LVEF was <40%, treatment is interrupted.
(§4) Ambulatory cardiac monitoring is performed on weeks 48, 96, 144, 192 and 240. Cardiac magnetic resonance is monitored at weeks 48, 144 and 240. (See FIG. 26).
Change in KCCQ scores from baseline, including OSS=overall summary score, CSS=clinical summary score, TSS=total symptom score, PLS=physical limitation score, SLS=social limitation score, QoL=quality of life, were determined. Patients were categorized with worsened (≤−5 points), unchanged (−5 to <5 points), small improvement (5 to <10 points), moderate to large improvement (10 to <20 points), and large to very large improvement (≥20 points) relative to baseline.

[2] = system: healthy adults; assay: Phase 1 ECG (QTcF), vital signs and clinical laboratory safety
Description: Safety and tolerability. Safety was assessed by the incidence of adverse events (AEs) and by incidence of reduced LVEF. Treatment-emergent AEs (TEAE) were defined as AEs that began or increased after study drug administration. All AEs were coded using the Medical Dictionary for Regulatory Activities version 21.1 and graded using the National Cancer Institute Common Terminology Criteria for AEs (version 4.03) 5-point severity scale. Each AE was judged as either related or unrelated to the study drug by the treating investigator. Clinical laboratory tests were obtained at regular intervals in all cohorts.
For safety monitoring, participants in all cohorts had periodic echocardiograms, which were assessed by a cardiologist. In the SAD and MAD cohorts, echocardiograms were also reviewed by an echocardiography core laboratory for PD assessments, as described below. In addition, participants in all cohorts were monitored with continuous 12-lead ECG recording using Holter monitors. For safety monitoring, a single 12-lead ECG was extracted at screening, pre-dose, and periodically throughout follow-up, and interpreted by the investigator. In the SAD, MAD, and CYP2D6-PM cohorts, cardiodynamic ECGs (triplicate 10-second, 12-lead ECG recordings) were obtained prior to the corresponding PK blood and ECG intervals quantitated by qualified readers.

[3] = system: patients with symptomatic oHCM; assay: Open-label extension trial in oHCM: safety
Description: as §1, §2, §3, §4

[4] = system: patients with symptomatic obstructive HCM (oHCM) receiving disopyramide; assay: Phase 2 trial in oHCM, Cohort 3: CK-274 in combination with disopyramide
Description: Cohort 3 included patients receiving disopyramide.
Body weight was ≥45 kg at screening; 4. […] Adequate acoustic windows for echocardiography; 6. Had LVOT-G during screening as follows for Cohorts 1 and 2: (a) resting gradient≥50 mmHg; or (b) resting gradient≥30 mmHg and <50 mmHg with post-Valsalva LVOT-G≥50 mmHg; or as follows for Cohort 3: persistent resting LVOT obstruction (≥30 mmHg) and provoked LVOT obstruction (≥50 mmHg); 7. Left ventricular ejection fraction (LVEF)≥60% at screening; 8. […] Taking stable doses of disopyramide for >4 weeks prior to screening (Cohort 3 only).
Patients up-titrated to Dose 2 if either of the following conditions were met on echocardiography: (1) resting LVOT-G≥30 mmHg and the biplane LVEF≥50%; or (2) resting LVOT-G<30 mmHg, post-Valsalva LVOT-G≥50 mmHg, and the biplane LVEF≥50%. Otherwise, the patient remains on Dose 1. If LVEF is <50% at Week 2, the patient was down-titrated to placebo.
Overall, treatment duration for each patient in the study was 10 weeks with an echocardiogram conducted 2 weeks after the last dose. Efficacy endpoints included resting and provoked LVOT gradients, NYHA class, and NT-proBNP.

In the case of `CCc1nc(-c2ccc3c(c2)CC[C@H]3NC(=O)c2cnn(C)c2)no1` [aficamten, (R)—N-(5-(5-ethyl-1,2,4-oxadiazol-3-yl)-2,3-dihydro-1H-inden-1-yl)-1-methyl-1H-pyrazole-4-carboxamide], the “Participants with very large clinical improvements (≥20 points) in KCCQ” value ([1]; Week 24) is reported as 40.0%, the “LVOT gradients (resting and Valsalva) over time” value ([1]; Weeks 2-24, site reads) is reported as “significant and sustained reduction” and the “Patients with worsening in NYHA class from baseline” value ([1]; open-label extension) is reported as “No patients”. The LVEF over time ([1]; through Week 24) was “minimal and stable reductions”, the “Serum chemistry, hematology, urinalysis findings” value ([2]; all Phase 1 cohorts) was “No clinically significant serum chemistry, hematology, or urinalysis findings” and the “Increases in QTcF interval” value ([2]; all cohorts (exception: 1 placebo participant)) was no more than 30 ms. For the same compound, the “QTcF at baseline or any assessment during the dosing interval” value ([2]; all cohorts, exception of 2 individuals with baseline QTcF ≥440 ms) was no more than 450 ms, the “QT effect in cardiodynamic assessments” value ([2]; single or multiple doses) was “no evidence of a positive QT effect” and the “Patients with TEAE Leading to Dose Reduction” value ([3]; N = 38) was 2 (5%). For the same compound, the “Patients with TEAE Leading to Drug Interruption” value ([3]; N = 38) was 1 (3%), the “Patients with at Least One Related TEAE” value ([3]; N = 38) was 8 (21%) and the “Patients with at Least One Severe TEAE” value ([3]; N = 38) was 1 (3%). The “Patients with at Least One TEAE” value ([3]; N = 38) was 28 (74%), the “Patients with at Least One TESAE” value ([3]; N = 38) was 2 (5%) and the “LVEF of one patient with recurrent alcohol induced atrial fibrillation” value ([3]; on 15 mg of CK-274) was 47%. The “Events of LVEF <50% attributed to CK-274” value ([3]; open-label extension) was “no events”, the “Moderate adverse events recorded” value ([4]; Cohort 3) was “six” and the “New York Heart Association functional class” value ([4]; Cohort 3) was “improved in the majority of patients”. The “Patients whose LVEF fell below the safety threshold of 50%” value ([4]; Cohort 3) was “no patients”, the “Serious adverse events attributed to treatment” value ([4]; Cohort 3) was “no serious adverse events attributed to treatment” and the “Average resting and post-Valsalva LVOT-G” value ([4]; Cohort 3, 5, 10, 15 mg, 10 weeks) was “substantial reductions”. For the same compound, the “Patients with AEs related to study drug (per investigator)” value ([4]; Cohort 3, 13 patients) was 2 (15.4) N (%), the “Patients with TEAEs leading to drug interruption or termination” value ([4]; Cohort 3, 13 patients) was 0 N (%) and the “Patients with TESAEs” value ([4]; Cohort 3, 13 patients) was 0 N (%). For the same compound, the “Patients with at least one TEAE” value ([4]; Cohort 3, 13 patients) was 9 (69) N (%), the “Patients with fatal TEAEs” value ([4]; Cohort 3, 13 patients) was 0 N (%) and the “TEAE of LVEF <50% (Core Lab)” value ([4]; Cohort 3, 13 patients) was 0 N (%). The “Adverse events of asymptomatic atrial fibrillation” value ([4]; Cohort 3, patient with known prior history) was “One” and the “Effect on LVOT-G compared with Cohort 1 patients (same CK-274 dose)” value ([4]; Cohort 3, patients treated with disopyramide) was “mostly attenuated”.

— US20250177357A1, “METHODS FOR TREATING HYPERTROPHIC CARDIOMYOPATHY” (priority 2021, published 2025)
